# Test results published in PubChem BioAssay AID449750 (Broad Institute, 2010).
# Several values for one entry are separate records, joined by “and”; a condition that tells them apart may be missing. Equal entries are not always repeated. Activity calls are given as the source filed them. The rule behind the calls is not given here.
# Test: non-covalent RecA intein splicing inhibitors, dose response, biochemical, cell-free, fluorescence, secondary screen (AID 449750)
row,SMILES,AC50
1,N#Cc1ccc(-n2c(-c3ccccc3)nnc2-c2ccccc2)cc1C#N,> 38 µM (inactive)
2,CC1=C(C)/C(=N/OC(=O)c2cccc([N+](=O)[O-])c2)C=CC1=O,> 38 µM (inactive)
3,CCCCCCCCCCCCCCCCn1cc[n+](C)c1,7.12 µM and 7.27 µM
4,Cc1ccc(Sc2ccc(NC(=O)CCl)cc2)cc1C,0.699 µM
5,COc1cc(C2C(C#N)=C(N)Oc3c2c(-c2ccccc2)nn3-c2ccccc2)cc(OC)c1OC (configuration not stated),29.9 µM
6,N#CC1=C(N)Oc2n[nH]c(-c3ccc(F)cc3)c2C1c1cccc(OC(=O)N2CCOCC2)c1 (configuration not stated),26.2 µM
7,COc1ccc(S(=O)(=O)/N=C2\C=C(Nc3ccc(O)cc3)C(=O)c3ccccc32)cc1,2.53 µM
8,O=c1cc(-c2ccc(F)cc2)[nH][nH]1,17.2 µM
9,C=CCOC(=O)C1=C(C)NC(=O)NC1c1ccc(OC(=O)c2ccco2)c(OC)c1 (configuration not stated),> 38 µM (inactive)
10,O=[N+]([O-])c1ccc(Sc2cccc[n+]2[O-])c2nonc12,9.27 µM
11,COc1cc(C(=O)NCC(=O)N/N=C/c2cccc(OC(=O)c3ccco3)c2)cc(OC)c1OC,> 38 µM (inactive)
12,O=C1N=NC2=C1c1c3ccccc3c(O)n1CC2,3.03 µM
13,CN(C)c1ccc(NC(=O)c2ccncc2)c2ccccc12,> 38 µM (inactive)
14,COc1ccc(NC(=S)NC(NC(=O)CCl)C(Cl)(Cl)Cl)c([N+](=O)[O-])c1 (configuration not stated),2.67 µM
15,ONc1cccnc1-n1nc(C(F)(F)F)cc1C(F)(F)F,> 38 µM (inactive)
16,Oc1[nH]c(=S)sc1C=C1N=c2ccccc2=N1,> 38 µM (inactive)
17,CCN(CC)CCN1C(=O)c2cccc3cc(N)cc(c23)C1=O,1.69 µM
18,COc1cc(Cc2nccc3cc(OC)c(OC)cc23)c(S(=O)(=O)O)cc1OC,> 38 µM (inactive)
19,Cc1ccc(NC(=O)CSc2ncnc3ccccc23)cc1S(=O)(=O)N1CCCCCC1,30.2 µM
20,Nc1cc(N)c(OCC(F)(F)F)cc1OCC(F)(F)F,9.65 µM
21,CC(C)C(=O)N1CCN(c2nc(-c3ccccc3)c3c(c2C#N)CCCC3)CC1,9.83 µM
22,C#CCOc1ccc(OC)cc1C(c1c(C)[nH][nH]c1=O)c1c(C)[nH][nH]c1=O,17.3 µM

row,SMILES,AC50
1,COc1ccc(NC(=O)Nc2ccc(O)c3ccccc23)cc1,39.3 µM
2,CC(=O)n1cc(N(C(=O)CCl)c2ccc(C)cc2)c2ccccc21,1.38 µM
3,COc1cc(/C=C2/C(=O)N(c3cccc(Br)c3)N=C2C)cc(OC)c1O,9.46 µM
4,CCOc1ccc(S(=O)(=O)Nc2cc(SCC(=O)O)c(O)c3ccccc23)cc1,2.81 µM
5,O=C(OCn1ncc(Cl)c(Cl)c1=O)c1cccc(C(F)(F)F)c1,12.9 µM
6,Cc1sc(NC(=O)/C=C/C(=O)O)c(C(N)=O)c1-c1ccc(C(C)(C)C)cc1,11.9 µM
7,CC(C)(C)C1CCc2sc(C(=O)NNC(=O)CCl)cc2C1 (configuration not stated),1.94 µM
8,CCOc1ccc(CN(C)C(=O)CCl)cc1,11.1 µM
9,Cc1cc(C(=O)CCl)c(C)n1CC1COc2ccccc2O1 (configuration not stated),19.4 µM
10,O=C(Nc1n[nH]c(C(F)(F)F)n1)c1cccs1,> 38 µM (inactive)
11,Cc1c(OCC(=O)Nc2cccnc2)ccc2c3c(c(=O)oc12)CCC3,> 38 µM (inactive)
12,COCc1[nH]nc2c1C1(CCSCC1)C(C#N)=C(N)O2,> 38 µM (inactive)
13,Cn1nc([N+](=O)[O-])c(C(C#N)c2ccccn2)c(Cl)c1=O (configuration not stated),> 38 µM (inactive)
14,CCCc1[nH]nc2c1C(CCC)C(C#N)=C(N)O2 (configuration not stated),> 38 µM (inactive)
15,Cc1cccc(NC2=C(NC(=O)c3ccccc3)C(=O)c3ccccc3C2=O)c1,9.5 µM
16,O=C1C(Nc2ccc(O)cc2)=C/C(=N/S(=O)(=O)c2cccs2)c2ccccc21,0.179 µM
17,Cc1ccc(O)c(N=CC2=C(O)c3ccccc3C2=O)c1,21.5 µM
18,Cc1nc2ccccc2c2c1C(=O)NC2=O,> 38 µM (inactive)
19,O=C(NC(=C(Cl)Cl)S(=O)(=O)c1ccc(Cl)cc1)c1ccccc1,4.78 µM
20,COc1ccc(C(=O)/C=C/Sc2nc3ccccc3o2)cc1,38.6 µM
21,Cc1cc(C)n2nc(CNS(=O)(=O)c3c(F)c(F)c(F)c(F)c3F)nc2n1,> 38 µM (inactive)
22,CCOC(=O)C(Nc1ccc2ccccc2c1)C(=O)OCC,38.5 µM

row,SMILES,AC50
1,CC(=O)Oc1c(/C=C(\C#N)C(N)=O)[nH]c2ccccc12,> 38 µM (inactive)
2,O=[N+]([O-])c1ccc(Oc2cccc(Br)c2)c2ccncc12,13.1 µM
3,O=C(NCc1cccnc1)/C(=C/c1ccc(-c2ccc(Cl)cc2)o1)S(=O)(=O)c1ccccc1,32.4 µM
4,Cc1ccc(C2=NN(C(=O)CCl)C(c3cccs3)C2)o1 (configuration not stated),> 38 µM (inactive)
5,C/C(CC(=O)Nc1ccccc1[N+](=O)[O-])=N\NC(=O)COc1ccccc1C,> 38 µM (inactive)
6,CN(C)/C=C/C(=O)c1ccc2noc(-c3ccc(F)cc3)c2c1,> 38 µM (inactive)
7,COc1ccccc1/C=C/C1(C(=O)NC2CCCC2)CC(=O)N1c1ccc(C)cc1 (configuration not stated),13.3 µM
8,O=C(Nc1ccc(Cl)c(Cl)c1)Nc1ccccc1NS(=O)(=O)c1cccs1,30.3 µM
9,COC(=O)c1cccc(-c2ccc(C(c3c(C)[nH][nH]c3=O)c3c(C)[nH][nH]c3=O)o2)c1,3.29 µM
10,CC(=O)c1ccc(-c2cccc(-c3nc4ccccn4c3NC3CCCCC3)c2)cc1,6.79 µM
11,COc1ccc2c(c1)C(=C(C#N)C#N)C(=O)N2CCc1ccccc1,> 38 µM (inactive)
12,CCSc1nnc(NC(=O)c2nc(S(=O)(=O)Cc3ccc(F)cc3)ncc2Cl)s1,> 38 µM (inactive)
13,O=C(Oc1ccc2ccccc2c1)c1ccco1,> 38 µM (inactive)
14,O=C(NC1C(=O)NNC1c1ccccc1)c1ccccc1 (configuration not stated),> 38 µM (inactive)
15,COC(=O)COc1c(Cl)cc(C(c2c(C)[nH][nH]c2=O)c2c(C)[nH][nH]c2=O)cc1OC,27.8 µM
16,Cc1nc2ccccc2nc1N/N=C/c1ccc(O)cc1O,> 38 µM (inactive)
17,Cc1nnc(Sc2cc(NCCO)c([N+](=O)[O-])c3nonc23)s1,> 38 µM (inactive)
18,CCN(c1ccccc1)c1cc2ccccc2c(=O)[nH]1,> 38 µM (inactive)
19,O=c1c(Cl)c(Cl)cnn1Cc1ccc(F)cc1,35.3 µM
20,O=C1C(Cl)=C(NCC2CCCO2)C(=O)N1c1ccccc1 (configuration not stated),> 38 µM (inactive)
21,CCOc1cc(/C=C2\C(=O)N(c3ccc(C(N)=O)cc3)N=C2C)ccc1OC(=O)c1cccs1,2.76 µM
22,CNC(=O)/C(C#N)=C/c1c(N(Cc2ccccc2)Cc2ccccc2)nc2c(C)cccn2c1=O,13 µM

row,SMILES,AC50
1,CC(C)c1nnc(NC(=O)c2nc(S(=O)(=O)Cc3ccccc3F)ncc2Cl)s1,> 38 µM (inactive)
2,CN1c2ccc(C=O)c3c(C=O)ccc(c23)N(C)C1(C)C,> 38 µM (inactive)
3,O=C1C=C(Nc2ccccc2O)c2ccccc2C1=O,> 38 µM (inactive)
4,COc1ccc(-c2cc(=O)n(-c3ccc([N+](=O)[O-])cc3)[nH]2)cc1,3.4 µM
5,Cc1ccc(C)c(Sc2ccc(NC(=O)CCl)cc2)c1,1.27 µM
6,C/C(CC(=O)Nc1cc(C)ccn1)=N\NC(=O)c1ccccc1C,> 38 µM (inactive)
7,CCCn1c(CC)nc([N+](=O)[O-])c1S(=O)(=O)c1ccccc1,> 38 µM (inactive)
8,O=C(Cc1ccccc1)c1c[nH]c(C(=O)C(Cl)(Cl)Cl)c1,38.1 µM
9,Cc1nn(Cc2ccccc2)c2c1C(c1ccncc1)C(C#N)=C(N)O2 (configuration not stated),> 38 µM (inactive)
10,CCCCCCCCCC[N+](C)(C)CC/C=C1/c2ccccc2Sc2ccc(Cl)cc21,5.09 µM
11,O=[N+]([O-])c1cc(-c2ccc(C(=S)N3CCOCC3)o2)ccc1Cl,18.4 µM
12,Cc1cccc(OCC(=O)Oc2ccc(Cl)cc2)c1,> 12 µM (inactive)
13,Cc1ccc(C(=O)NC2(O)C(=O)c3ccccc3C2=O)cc1C,6.09 µM
14,CCCCCc1cc(=O)oc2c(C(CCN3CCCC(C)C3)c3ccc(OC)cc3)c(OC)cc(OC)c12 (configuration not stated),10.1 µM
15,FC(F)(F)c1nnc(-c2ccccc2)nc1Oc1ccc(Cl)cc1Cl,> 38 µM (inactive)
16,O=C(CCl)N(CCc1ccccc1)CCc1ccccc1,3.25 µM
17,CCCSc1cc(NCCOC(=O)CCC)c([N+](=O)[O-])c2nonc12,> 38 µM (inactive)
18,CC(=O)Oc1ccc(/C=C2/C(=O)N(c3ccccc3)N=C2C)cc1,4.09 µM
19,CC(=O)N(C1=C(N2CCOCC2)C(=O)c2ccccc2C1=O)c1ccc(C(=O)O)cc1,9.14 µM
20,CCOc1cc(C2C(C#N)=C(N)Oc3n[nH]c(-c4ccccc4)c32)ccc1O (configuration not stated),20.6 µM
21,O=C(CCl)NCc1c(Cl)cccc1-n1cccc1,7.58 µM
22,Cc1cc2nc3ccc(=[N+](C)C)cc-3sc2cc1N,13.1 µM

row,SMILES,AC50
1,CCOC(=O)c1c(C)oc2c1c(C=NCCC(=O)O)c(O)c1ccccc12,22.1 µM
2,Cc1ccc(-n2nnnc2CCl)cc1,24 µM
3,CC(c1ccc(O)cc1)(c1ccc(O)cc1)c1ccc(CCBr)cc1,11.8 µM
4,O=c1[nH]c(N2CCOCC2)cc2ccccc12,> 38 µM (inactive)
5,C[C@@H]1CC=C[C@H]2[C@H]1C(=O)N(Cc1ccccc1)[C@H]2c1ccc(F)c(Br)c1,17.9 µM
6,COc1cc(/C=C2/C(=O)N(c3ccc(Br)cc3)N=C2C)cc(OC)c1OC,7.07 µM
7,CC(=O)Oc1c(Br)cc(N(C(C)=O)S(=O)(=O)c2ccccc2)c2ccccc12,8.88 µM
8,COC(=O)Cc1[nH]nc2c1C(c1ccc(O)c(OC)c1)C(C#N)=C(N)O2 (configuration not stated),28.4 µM
9,COC(=O)c1c(NC(=O)/C=C/C(=O)O)sc(C)c1-c1ccc(C(C)C)cc1,11.6 µM
10,Cc1[nH]nc2c1C(c1cccc(OC(=O)N3CCOCC3)c1)C(C#N)=C(N)O2 (configuration not stated),> 38 µM (inactive)
11,COC(=O)/C(=C1/Oc2cc(C)oc(=O)c2S1)C(F)(F)F,> 38 µM (inactive)
12,Cc1[nH]nc2c1C(c1ccc(-c3ccc(Cl)cc3)o1)C(C#N)=C(N)O2 (configuration not stated),39.1 µM
13,Cc1[nH]nc2c1C1(CCC3(CC1)OCCO3)C(C#N)=C(N)O2,> 38 µM (inactive)
14,COc1ccc(-c2[nH]nc3c2C(c2ccncc2)C(C#N)=C(N)O3)cc1 (configuration not stated),39.9 µM
15,Cc1cc(=O)n(-c2ccc(O)cc2)[nH]1,7.46 µM
16,CC1=NN(c2ccc(C)c(C)c2)C(=O)C1C(c1cccc(O)c1)C1C(=O)N(c2ccc(C)c(C)c2)N=C1C (configuration not stated),3.38 µM
17,Oc1ccc(N=Cc2sc3ccccc3c2Cl)cc1,> 38 µM (inactive)
18,COc1ccc(-c2cc(=O)[nH][nH]2)cc1,8.39 µM
19,Oc1ccc(/C=N/Nc2ccc(C(F)(F)F)cn2)c(O)c1,> 38 µM (inactive)
